Consider twelve compounds from ChEMBL document CHEMBL1201862, “PubChem BioAssay data set” (2004).

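Each compound was tested at five concentrations against cells in 96-well plates for 48 hours. GI50 marks 50% less growth.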 The source made the active and inactive calls. No stated cut-off is given here; in the data, active = GI50 up to about 1.1 µM and inactive = higher. A value given as a limit tells only on which side of the number the result lay.

Test systems include A498; HCC 2998; HCT-116; HOP-92; IGROV-1; LOX IMVI; M14; MDA-MB-231; Malme-3M; NCI-H460; OVCAR-3; OVCAR-4; RXF 393; SF-539; T47D; UACC-257; UO-31; SK-MEL-2; U-251; SR.
Test in all cases: NCI-60 cell line screen, 48 h

Take `CCN(CC)/C(Sc1ccccc1)=C(\C(Cl)=C(Cl)Cl)[N+](=O)[O-]`: the GI50 is 21.1 µM (inactive) in the test on A498; 19.5 µM (inactive) with HCC 2998; 16.4 µM (inactive) in the test with HCT-116; 14.2 µM (inactive) with HOP-92; 16 µM (inactive) in the test with IGROV-1; 11 µM (inactive) with LOX IMVI. Also, the GI50 in the test with M14 is 17.3 µM (inactive); in the test on MDA-MB-231, 24.2 µM (inactive); in the test on Malme-3M, 18 µM (inactive); with NCI-H460, 21.7 µM (inactive); with OVCAR-3 it was 16.4 µM (inactive); in the test on OVCAR-4, 33.7 µM (inactive). Also, the GI50 was 13.6 µM (inactive) in the test on RXF 393; 17.3 µM (inactive) in the test on SF-539; 17.8 µM (inactive) in the test with T47D; 19.1 µM (inactive) in the test with UACC-257; 14.8 µM (inactive) in the test with UO-31.
With `Cc1ccc(C(=O)Nc2ccc(CP(=O)(O)O)cc2CP(=O)(O)O)cc1NC(=O)Nc1cc(C(=O)Nc2ccc(CP(=O)(O)O)cc2CP(=O)(O)O)ccc1C`, the GI50 with A498, with HCC 2998, in the test on HCT-116, with IGROV-1, with LOX IMVI and in the test with M14 was > 100 µM (inactive) each time. Further, the GI50 in the test on MDA-MB-231, with Malme-3M, in the test with NCI-H460, in the test on OVCAR-3, with OVCAR-4 and in the test with RXF 393 was > 100 µM (inactive) throughout. Further, the GI50 in the test on SF-539, in the test on SK-MEL-2, with T47D, in the test with U-251, in the test on UACC-257 and in the test on UO-31 was > 100 µM (inactive) each time.
Regarding `CC/C(Cl)=N\OC(=O)Nc1ccc(OC)cc1`, the GI50 was 18.2 µM (inactive) with A498; 5.58 µM (inactive) in the test on HCC 2998; 5.86 µM (inactive) in the test on HCT-116; 2.43 µM (inactive) in the test on HOP-92; 6.71 µM (inactive) in the test with IGROV-1; 2.03 µM (inactive) with LOX IMVI. For the same compound, the GI50 with M14 is 5.19 µM (inactive); with MDA-MB-231, 7.06 µM (inactive); with Malme-3M, 1.84 µM (inactive); in the test with NCI-H460 it was 20.2 µM (inactive); in the test on OVCAR-3, 5.68 µM (inactive); with OVCAR-4, 16.7 µM (inactive). In addition, the GI50 in the test on RXF 393 was 2.15 µM (inactive); in the test with SF-539, 4.89 µM (inactive); with SK-MEL-2, 18.2 µM (inactive); with T47D, 5.89 µM (inactive); in the test with U-251 it was 19.5 µM (inactive); in the test on UACC-257, 15.7 µM (inactive). In the test on UO-31, the GI50 was 7.94 µM (inactive).
`CO/N=C(/C)c1cccc(Nc2nc3ccccc3c3[nH]c4ccccc4c23)c1`: the GI50 is 3.16 µM (inactive) in the test with HCT-116; 13.5 µM (inactive) in the test on IGROV-1; 10.6 µM (inactive) with LOX IMVI; 7.69 µM (inactive) with M14; 12.1 µM (inactive) with MDA-MB-231; 2.52 µM (inactive) in the test on NCI-H460. Further, the GI50 with OVCAR-3 is 5.7 µM (inactive); with SF-539, 14.4 µM (inactive); in the test on SK-MEL-2 it was 10.7 µM (inactive); in the test on SR, 5.86 µM (inactive); in the test with T47D, 1.84 µM (inactive); in the test on U-251 it was 13.5 µM (inactive). The values for the GI50 with UACC-257 and in the test on UO-31 were 13.3 µM (inactive) and 10.1 µM (inactive), respectively.
With `CCOc1ccc(Nc2nc3c(s2)C(=O)c2ccccc2C3=O)cc1`, the GI50 in the test on A498 was 15.8 µM (inactive); in the test with HCC 2998, 17.1 µM (inactive); in the test on HCT-116, 13.2 µM (inactive); in the test on HOP-92, 12.3 µM (inactive); with IGROV-1 it was 11.9 µM (inactive); in the test on LOX IMVI, 3.76 µM (inactive). Also, the GI50 was 12.2 µM (inactive) with M14; 2.33 µM (inactive) in the test on MDA-MB-231; 2.77 µM (inactive) in the test on Malme-3M; 15 µM (inactive) in the test with NCI-H460; 3.04 µM (inactive) in the test with OVCAR-3; 0.787 µM (active) with OVCAR-4. Moreover, the GI50 with RXF 393 is 12.8 µM (inactive); with SF-539, 10.4 µM (inactive); in the test on SK-MEL-2, 15.1 µM (inactive); in the test with T47D, 13.6 µM (inactive); in the test on U-251, 7.64 µM (inactive); in the test on UACC-257, 10.4 µM (inactive). Further, the GI50 in the test on UO-31 was 14.4 µM (inactive).
Take `O=S(=O)(O)c1ccccc1/N=N\c1ccc(/N=N/c2c(O)ccc3ccccc23)c(S(=O)(=O)O)c1`: the GI50 is > 100 µM (inactive) with HCT-116; > 100 µM (inactive) in the test on HOP-92; > 100 µM (inactive) with IGROV-1; > 100 µM (inactive) in the test with M14; > 100 µM (inactive) in the test on MDA-MB-231; 19.4 µM (inactive) in the test on Malme-3M. The GI50 with OVCAR-3, with OVCAR-4, in the test on RXF 393, with SK-MEL-2, in the test with T47D and in the test on U-251 was > 100 µM (inactive) each time. The GI50 in the test on UACC-257 and in the test on UO-31 was > 100 µM (inactive) throughout.
Consider `CC(=O)NNC(=S)N/C=C1/C(=O)C=C(C)OC1=O`, for which the GI50 in the test with HCC 2998, in the test on HCT-116, in the test with HOP-92, in the test with IGROV-1, with LOX IMVI and in the test on M14 was > 100 µM (inactive) throughout. Further, the GI50 in the test on MDA-MB-231, in the test on NCI-H460, with OVCAR-3, in the test on OVCAR-4, in the test with SF-539 and in the test on SK-MEL-2 was > 100 µM (inactive) throughout. Besides, the GI50 with T47D, in the test on U-251, in the test with UACC-257 and in the test on UO-31 was > 100 µM (inactive) each time.
On to `CC1CCC2CC1NC(=O)CCOCCC(=O)NC2(C)C` (stereo unspecified), for which the GI50 in the test on HCC 2998, with HCT-116, in the test with HOP-92, with IGROV-1, in the test on LOX IMVI and with M14 was > 100 µM (inactive) each time. Also, the GI50 with MDA-MB-231, in the test on NCI-H460, in the test with OVCAR-3, with OVCAR-4, with SF-539 and in the test with SR was > 100 µM (inactive) in each case. Moreover, the GI50 with T47D, in the test with U-251, in the test with UACC-257 and in the test on UO-31 was > 100 µM (inactive) in each case.
On to `c1ccc(SCCP(CCP(c2ccccc2)c2ccccc2)c2ccccc2)cc1` (stereo unspecified), for which the GI50 with HCC 2998 was 12.2 µM (inactive); with HCT-116, 1.89 µM (inactive); in the test on HOP-92, 2.29 µM (inactive); in the test with IGROV-1, 6.34 µM (inactive); in the test with M14, 10.5 µM (inactive); in the test with MDA-MB-231, 6.34 µM (inactive). Moreover, the GI50 with Malme-3M is 11.5 µM (inactive); with NCI-H460 it was 2.84 µM (inactive); with OVCAR-3 it was 3.88 µM (inactive); with OVCAR-4, 6.14 µM (inactive); with RXF 393, 3.9 µM (inactive); with SF-539, 34.9 µM (inactive). In addition, the GI50 was 3.07 µM (inactive) in the test on SK-MEL-2; 6.58 µM (inactive) in the test with T47D; 1.89 µM (inactive) in the test on U-251; 11.7 µM (inactive) in the test on UACC-257; 7.73 µM (inactive) in the test with UO-31.
Regarding `CC(C)C[C@H]1[C@@H](OCc2ccccc2)COS(=O)N1[C@H](C)c1ccccc1` (stereo partly specified), the GI50 was 22.7 µM (inactive) with A498; 4.85 µM (inactive) in the test with HCT-116; 18.9 µM (inactive) in the test on HOP-92; 8.75 µM (inactive) in the test on IGROV-1; 13.1 µM (inactive) in the test with LOX IMVI; 7.66 µM (inactive) in the test with M14. Further, the GI50 is 20.2 µM (inactive) in the test with MDA-MB-231; 12.7 µM (inactive) in the test with Malme-3M; 15.3 µM (inactive) with NCI-H460; 10.2 µM (inactive) with OVCAR-3; 13.1 µM (inactive) in the test on RXF 393; 15.7 µM (inactive) with SK-MEL-2. Further, the GI50 is 9.55 µM (inactive) in the test on T47D, 13.3 µM (inactive) in the test with U-251, 16 µM (inactive) with UACC-257 and 25.3 µM (inactive) in the test on UO-31.
With `NC1CSc2ccccc2NC1=O` (stereo unspecified), the GI50 in the test on HCC 2998, in the test on HCT-116, in the test on IGROV-1, in the test on LOX IMVI, in the test with M14 and with MDA-MB-231 was > 100 µM (inactive) throughout. The GI50 in the test on Malme-3M, in the test with NCI-H460, in the test on OVCAR-3, in the test on OVCAR-4, with RXF 393 and in the test on SF-539 was > 100 µM (inactive) throughout. Moreover, the GI50 in the test on SK-MEL-2, in the test on SR, in the test on T47D, with U-251, with UACC-257 and in the test with UO-31 was > 100 µM (inactive) throughout.
In the case of `CC12CCC(=O)[C@@]1(C)CCCC2=O` (stereo partly specified), the GI50 in the test with HCC 2998, with HCT-116, in the test with IGROV-1, with LOX IMVI, in the test with M14 and in the test with MDA-MB-231 was > 100 µM (inactive) in each case. Moreover, the GI50 with Malme-3M is > 100 µM (inactive); with NCI-H460, > 100 µM (inactive); in the test on OVCAR-4, > 100 µM (inactive); with RXF 393, 42.2 µM (inactive); in the test on SF-539, > 100 µM (inactive); in the test with SK-MEL-2, > 100 µM (inactive). Besides, the GI50 in the test on SR, with T47D, in the test with U-251, with UACC-257 and in the test with UO-31 was > 100 µM (inactive) throughout.
